According to ChEMBL document CHEMBL1131980, “New class of biphenylene dibenzazocinones as potent ligands for the human EP1 prostanoid receptor” (Bioorg Med Chem Lett, 1999):
pKi: −log10 of the molar value.

Assays:
[1] = target: Prostaglandin E2 receptor EP4 subtype (Homo sapiens, UniProt P35408); assay: Affinity at human EP4 receptor.
[2] = target: T1, Prostaglandin D2 receptor (Homo sapiens, UniProt Q13258); assay: Compound was evaluated for its secondary binding affinity to human DP receptors by using Aequorin luminescence-based functional calcium assay
T1 sequence (Q13258 whole entry): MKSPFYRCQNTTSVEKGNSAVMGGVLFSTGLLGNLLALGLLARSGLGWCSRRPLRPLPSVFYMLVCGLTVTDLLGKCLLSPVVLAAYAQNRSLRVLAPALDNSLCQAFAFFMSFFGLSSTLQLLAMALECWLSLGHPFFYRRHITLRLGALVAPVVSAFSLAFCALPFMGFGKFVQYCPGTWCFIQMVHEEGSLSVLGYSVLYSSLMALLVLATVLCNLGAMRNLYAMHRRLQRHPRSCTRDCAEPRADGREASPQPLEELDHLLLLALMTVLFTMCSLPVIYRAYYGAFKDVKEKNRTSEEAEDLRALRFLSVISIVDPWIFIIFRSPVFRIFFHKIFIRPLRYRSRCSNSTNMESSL

Thromboxane A2 receptor = target: T2, Thromboxane A2 receptor (Homo sapiens, UniProt P21731); assay: Compound was evaluated for its secondary binding affinity to human TP receptors by using Aequorin luminescence-based functional calcium assay
T2 sequence (P21731 whole entry): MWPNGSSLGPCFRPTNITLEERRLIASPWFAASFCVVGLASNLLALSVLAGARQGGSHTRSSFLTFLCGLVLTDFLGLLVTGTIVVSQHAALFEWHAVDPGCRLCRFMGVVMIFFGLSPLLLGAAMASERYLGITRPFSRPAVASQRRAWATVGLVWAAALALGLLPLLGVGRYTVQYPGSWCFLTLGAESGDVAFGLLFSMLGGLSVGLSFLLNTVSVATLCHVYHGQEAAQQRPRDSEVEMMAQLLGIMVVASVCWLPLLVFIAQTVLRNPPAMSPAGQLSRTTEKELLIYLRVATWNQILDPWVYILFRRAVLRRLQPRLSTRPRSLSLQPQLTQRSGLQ

[3] = target: T3, Prostaglandin E2 receptor EP1 subtype (Homo sapiens, UniProt P34995); assay: Affinity at human EP1 receptor.
T3 sequence (P34995 whole entry): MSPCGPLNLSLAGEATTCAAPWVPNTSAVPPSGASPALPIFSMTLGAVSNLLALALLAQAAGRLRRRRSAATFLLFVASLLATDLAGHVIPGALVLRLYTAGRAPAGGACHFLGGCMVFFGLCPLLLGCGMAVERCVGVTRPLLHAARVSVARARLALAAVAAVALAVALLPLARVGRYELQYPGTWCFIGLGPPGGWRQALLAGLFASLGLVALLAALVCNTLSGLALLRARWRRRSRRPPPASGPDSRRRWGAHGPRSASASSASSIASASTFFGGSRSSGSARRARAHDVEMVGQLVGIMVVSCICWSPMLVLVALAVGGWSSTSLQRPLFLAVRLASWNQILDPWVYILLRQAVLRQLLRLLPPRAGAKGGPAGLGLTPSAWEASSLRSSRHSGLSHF

[4] = target: T4, Prostaglandin E2 receptor EP3 subtype (Homo sapiens, UniProt P43115); assay: Affinity at human EP3 receptor.
T4 sequence (P43115 whole entry): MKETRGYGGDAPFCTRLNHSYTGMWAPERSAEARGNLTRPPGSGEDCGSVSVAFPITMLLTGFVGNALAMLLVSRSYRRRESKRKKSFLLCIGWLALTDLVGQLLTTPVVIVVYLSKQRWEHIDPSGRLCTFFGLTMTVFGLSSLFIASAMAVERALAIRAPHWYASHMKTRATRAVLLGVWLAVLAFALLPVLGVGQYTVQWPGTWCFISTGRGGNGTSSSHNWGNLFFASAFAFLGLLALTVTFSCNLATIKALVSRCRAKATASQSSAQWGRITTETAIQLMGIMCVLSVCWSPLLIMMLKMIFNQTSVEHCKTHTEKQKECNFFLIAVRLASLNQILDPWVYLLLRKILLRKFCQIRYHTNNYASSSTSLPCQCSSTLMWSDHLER

[5] = target: Prostaglandin F2-alpha receptor (Homo sapiens, UniProt P43088); assay: Compound was evaluated for its secondary binding affinity to human FP receptors by using Aequorin luminescence-based functional calcium assay
Sequence of Prostaglandin F2-alpha receptor (P43088 whole entry): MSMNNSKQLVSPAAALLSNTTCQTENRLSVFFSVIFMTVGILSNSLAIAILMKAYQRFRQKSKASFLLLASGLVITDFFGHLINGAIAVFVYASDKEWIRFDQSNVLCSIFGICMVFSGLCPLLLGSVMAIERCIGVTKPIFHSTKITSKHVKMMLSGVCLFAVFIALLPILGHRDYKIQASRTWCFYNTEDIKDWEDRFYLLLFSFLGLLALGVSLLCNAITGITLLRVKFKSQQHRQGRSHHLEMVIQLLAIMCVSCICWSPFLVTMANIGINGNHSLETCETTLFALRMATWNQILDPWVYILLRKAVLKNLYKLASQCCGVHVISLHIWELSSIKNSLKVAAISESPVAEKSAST

Prostacyclin receptor = Prostacyclin receptor (Homo sapiens, UniProt P43119); assay: Compound was evaluated for its secondary binding affinity to human IP receptors by using Aequorin luminescence-based functional calcium assay
Sequence of Prostacyclin receptor (P43119 whole entry): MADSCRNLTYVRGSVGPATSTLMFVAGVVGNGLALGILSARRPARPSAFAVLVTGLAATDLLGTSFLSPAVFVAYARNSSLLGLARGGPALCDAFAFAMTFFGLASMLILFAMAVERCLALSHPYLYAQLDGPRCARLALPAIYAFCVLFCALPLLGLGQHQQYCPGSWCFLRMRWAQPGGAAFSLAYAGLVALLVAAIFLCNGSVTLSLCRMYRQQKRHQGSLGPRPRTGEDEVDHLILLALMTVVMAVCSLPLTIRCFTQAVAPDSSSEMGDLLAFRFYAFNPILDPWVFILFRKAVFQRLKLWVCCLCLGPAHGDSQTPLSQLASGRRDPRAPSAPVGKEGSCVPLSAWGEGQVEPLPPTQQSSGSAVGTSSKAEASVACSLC

[6] = target: Prostaglandin E2 receptor EP2 subtype (Homo sapiens, UniProt P43116); assay: Affinity at human EP2 receptor.
Sequence of Prostaglandin E2 receptor EP2 subtype (P43116 whole entry): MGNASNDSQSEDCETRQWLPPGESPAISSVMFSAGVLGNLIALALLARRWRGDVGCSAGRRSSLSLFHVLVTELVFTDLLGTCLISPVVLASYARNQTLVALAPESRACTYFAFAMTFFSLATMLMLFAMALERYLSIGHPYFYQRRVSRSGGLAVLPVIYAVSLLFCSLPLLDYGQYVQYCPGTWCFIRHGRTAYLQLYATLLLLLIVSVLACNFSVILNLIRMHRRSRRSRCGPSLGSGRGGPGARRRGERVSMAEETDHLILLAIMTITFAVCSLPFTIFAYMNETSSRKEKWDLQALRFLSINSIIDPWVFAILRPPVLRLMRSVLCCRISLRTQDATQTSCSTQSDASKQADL

[7] = Compound was evaluated for ratio of Ki's of EP3 and EP1

Sequence of Prostaglandin E2 receptor EP4 subtype (P35408 whole entry): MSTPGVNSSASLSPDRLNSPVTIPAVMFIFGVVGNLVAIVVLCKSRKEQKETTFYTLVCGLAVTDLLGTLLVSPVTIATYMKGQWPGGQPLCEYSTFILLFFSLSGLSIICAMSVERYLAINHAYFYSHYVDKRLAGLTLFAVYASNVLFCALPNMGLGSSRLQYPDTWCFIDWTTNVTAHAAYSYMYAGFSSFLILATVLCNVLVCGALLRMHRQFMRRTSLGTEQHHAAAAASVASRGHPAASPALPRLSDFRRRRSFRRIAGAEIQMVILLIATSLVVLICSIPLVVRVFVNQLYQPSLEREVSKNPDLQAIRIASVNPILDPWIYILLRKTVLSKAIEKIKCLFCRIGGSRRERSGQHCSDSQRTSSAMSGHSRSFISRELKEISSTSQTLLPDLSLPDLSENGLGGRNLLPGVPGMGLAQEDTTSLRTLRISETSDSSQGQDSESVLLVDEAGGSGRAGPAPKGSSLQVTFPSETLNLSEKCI

| Structure (SMILES) | pKi [1] | pKi [2] | pKi (Thromboxane A2 receptor) | pKi [3] | pKi [4] | pKi [5] | pKi (Prostacyclin receptor) | pKi [6] | Ratio [7] |
| --- | --- | --- | --- | --- | --- | --- | --- | --- | --- |
| O=C(NCCCc1ccccc1)NS(=O)(=O)c1ccccc1-c1ccc(CN2C(=O)c3ccccc3CCc3ccccc32)cc1 | < 4.00 |  |  | 6.40 | < 4.00 |  |  | < 4.00 |  |
| CCCCNC(=O)NS(=O)(=O)c1ccccc1-c1ccc(CN2C(=O)c3ccccc3CCc3ccccc32)cc1 | < 4.00 |  |  | 6.66 | 5.22 |  |  | < 4.00 |  |
| CN(C(=O)NCCc1ccccc1)S(=O)(=O)c1ccccc1-c1ccc(CN2C(=O)c3ccccc3CCc3ccccc32)cc1 | < 4.00 |  |  | 6.44 | < 4.00 |  |  | < 4.00 |  |
| C[C@H](NC(=O)NS(=O)(=O)c1ccccc1-c1ccc(CN2C(=O)c3ccccc3CCc3ccccc32)cc1)c1ccccc1 | 5.16 |  |  | 6.85 | 5.33 |  |  | 4.68 |  |
| O=C(NCCc1cccs1)NS(=O)(=O)c1ccccc1-c1ccc(CN2C(=O)c3ccccc3Oc3ccccc32)cc1 |  |  |  | 4.97 |  |  |  |  |  |
| O=C(Nc1ccccc1)NS(=O)(=O)c1ccccc1-c1ccc(CN2C(=O)c3ccccc3CCc3ccccc32)cc1 | 4.72 |  |  | 4.68 | 5.34 |  |  | 4.80 |  |
| O=C(COc1ccccc1)NS(=O)(=O)c1ccccc1-c1ccc(CN2C(=O)c3ccccc3CCc3ccccc32)cc1 | 5.15 |  |  | 6.85 | 5.33 |  |  | 4.66 |  |
| O=C(NCCc1cccs1)NS(=O)(=O)c1ccccc1-c1ccc(CN2Cc3ccccc3CCc3ccccc32)cc1 |  |  |  | 5.55 |  |  |  |  |  |
| O=C(NS(=O)(=O)c1ccccc1-c1ccc(CN2C(=O)c3ccccc3CCc3ccccc32)cc1)OCc1ccccc1 | 5.22 |  |  | 6.82 | 5.62 |  |  | 4.96 |  |
| O=C(NCc1ccccc1)NS(=O)(=O)c1ccccc1-c1ccc(CN2C(=O)c3ccccc3CCc3ccccc32)cc1 | < 4.00 |  |  | 6.70 | 4.89 |  |  | < 4.00 |  |
| O=C1c2ccccc2CCc2ccccc2N1Cc1ccc(-c2ccccc2S(=O)(=O)N(Cc2ccccc2)C(=O)NCCc2ccccc2)cc1 | < 4.00 |  |  | 4.29 | < 4.00 |  |  | < 4.00 |  |
| O=C(NCCc1cccs1)NS(=O)(=O)c1ccccc1-c1ccc(Cn2c(=O)c3ccccc3c3ccccc32)cc1 |  |  |  | 5.92 |  |  |  |  |  |
| CC(C)(C)NC(=O)NS(=O)(=O)c1ccccc1-c1ccc(CN2C(=O)c3ccccc3CCc3ccccc32)cc1 | 5.33 |  |  | 6.11 | 5.92 |  |  | < 4.00 | 1.7 |

These reach a higher pKi [3]. Values come first.

| pKi [1] | pKi [2] | pKi (Thromboxane A2 receptor) | pKi [3] | pKi [4] | pKi [5] | pKi (Prostacyclin receptor) | pKi [6] | Ratio [7] | Structure (SMILES) |
| --- | --- | --- | --- | --- | --- | --- | --- | --- | --- |
| < 4.00 |  |  | 6.92 | 4.29 |  |  | < 4.00 |  | O=C(NCCc1ccccc1)NS(=O)(=O)c1ccccc1-c1ccc(CN2C(=O)c3ccccc3CCc3ccccc32)cc1 |
| < 4.00 |  |  | 7.00 | 5.66 |  |  | < 4.00 |  | O=C(NCCc1cccs1)NS(=O)(=O)c1ccccc1-c1ccc(CN2C(=O)c3ccccc3CCc3ccccc32)cc1 |
| < 4.00 |  |  | 7.24 | 5.55 |  |  | 4.85 |  | O=C(Cc1ccccc1)NS(=O)(=O)c1ccccc1-c1ccc(CN2C(=O)c3ccccc3CCc3ccccc32)cc1 |
| 5.52 |  |  | 7.30 | 5.80 |  |  | 4.89 |  | CO[C@@](C(=O)NS(=O)(=O)c1ccccc1-c1ccc(CN2C(=O)c3ccccc3CCc3ccccc32)cc1)(c1ccccc1)C(F)(F)F |
| 4.89 |  |  | 7.33 | 5.44 |  |  | < 4.00 |  | O=C(CCc1ccccc1)NS(=O)(=O)c1ccccc1-c1ccc(CN2C(=O)c3ccccc3CCc3ccccc32)cc1 |
| 5.62 | 5.40 | 5.96 | 7.74 | 4.80 | 5.89 | 4.68 | < 4.00 |  | CC(C)(Cc1ccccc1)C(=O)NS(=O)(=O)c1ccccc1-c1ccc(CN2C(=O)c3ccccc3CCc3ccccc32)cc1 |
| 5.96 | 5.54 | 5.68 | 7.77 | 5.30 | 5.21 | 4.28 | 4.64 |  | CN(CCc1ccccc1)C(=O)NS(=O)(=O)c1ccccc1-c1ccc(CN2C(=O)c3ccccc3CCc3ccccc32)cc1 |
| 4.70 | 5.55 | 5.55 | 7.80 | 5.30 | 5.28 | 4.55 | < 4.00 |  | CC(C(=O)NS(=O)(=O)c1ccccc1-c1ccc(CN2C(=O)c3ccccc3CCc3ccccc32)cc1)c1ccccc1 (centres undefined) |
| 5.40 | 5.70 | 5.82 | 7.92 | 5.89 | 5.42 | 4.89 | 4.96 |  | CO[C@](C(=O)NS(=O)(=O)c1ccccc1-c1ccc(CN2C(=O)c3ccccc3CCc3ccccc32)cc1)(c1ccccc1)C(F)(F)F |
| 5.30 | 5.62 | 5.52 | 8.00 | 5.40 | 5.30 | 4.68 | 4.64 |  | CC(C)(C(=O)NS(=O)(=O)c1ccccc1-c1ccc(CN2C(=O)c3ccccc3CCc3ccccc32)cc1)c1ccccc1 |
